Measurements from patent US20240318141A1, “MATURATION AGENT” (Orizuru Therapeutics, Inc., priority 2021, published 2024).
Values joined by “and” are separate entries in the source; they are usually repeats but may differ in a detail not shown here. Equal entries are not always repeated.

How the values were obtained:
[1] = test system: non-endocrine cells in graft (Outgrowth, Cyst); experiment: Evaluation of non-endocrine cells in graft and protein expression by HE and immunohistological staining (Example 5); type: in vivo, mouse; conditions: graft 6 months after transplantation
Protocol: The excised graft was fixed and dehydrated, and a paraffin section was then prepared and subjected to HE staining and immunohistological staining for the expression of the proteins of interest (insulin, glucagon, Ki67, human nucleus, PDX1, and CK19). The presence or absence of non-endocrine cells was confirmed on the basis of the morphology and staining image thereof. The number and frequency of non-endocrine cells appearing in the graft were counted as total numbers from four tests conducted with cells derived from a plurality of batches treated in the same manner.
Outgrowth shown in Table 9 refers to a population of human nucleus-positive, PDX1-negative, and Ki67-positive non-endocrine cells, and its presence was determined from morphology by HE staining as well as by immunohistological staining. Cyst shown in Table 9 refers to human nucleus-positive, PDX1-positive, and CK19-positive non-endocrine duct cells, and its presence was determined from a duct form by HE staining as well as by immunohistological staining.

[2] = test system: non-endocrine cells in insulin-producing cell population (QHJI-114s04 iPS cell line); experiment: Docetaxel treatment of cell population comprising insulin-producing cells, then extended culture in basal medium containing EGF (Example 4); type: cell-based, human; conditions: for proportions of PDX1+/CHGA− and PDX1−/CHGA− cells after extended culture involving EGF: with respect to control cell population
Text: The differentiation of a QHJI-114s04 iPS cell line into an insulin-producing cell population was induced by the three-dimensional culture method using a bioreactor according to steps 1) to 6) described above and the previous report (Nature Biotechnology 2014; 32: 1121-1133). Specifically, the iPS cells were subjected to the first culture in a medium (DMEM/1% B-27 (INS+)/Penicillin Streptomycin/dimethyl sulfoxide) containing differentiation-inducing factors (GSK3β inhibitor, ROCK inhibitor and low dose of activin A) under conditions causing action of insulin, and subsequently subjected to the second culture in a medium (DMEM/1% B-27 (INS−)/Penicillin Streptomycin/dimethyl sulfoxide) containing a differentiation-inducing factor (low dose of activin A) under conditions causing no action of insulin to obtain a definitive endoderm cell population. […] The exchange from the bioreactor to the multiwell plate was carried out in step 6).
Marker protein expression (PDX1 and CHGA) in each cell population before the start of and after the completion of extended culture was measured by flow cytometry. Marker protein expression (NKX6.1, C-peptide (insulin), PDX1, and CHGA) in the cell population obtained 7 days after the start of step 6) was also measured by flow cytometry. Respective samples were collected by sampling from separate culture containers. The number of cells was measured in an automatic cell counter at the time of sample preparation for flow cytometry, and the total number of cells per well of the multiwell plate was calculated.

[3] = test system: insulin-producing cell population (QHJI-114s04 iPS cell line); experiment: Marker protein expression by flow cytometry of insulin-producing cell population prepared by addition of docetaxel (Example 3); type: cell-based, human
Text: The differentiation of a QHJI-114s04 iPS cell line into insulin-producing cells was induced by the three-dimensional culture method using a bioreactor and a multiwell plate according to steps 1) to 6) described above and the previous report (Nature Biotechnology 2014; 32: 1121-1133). Specifically, the iPS cells were subjected to the first culture in a medium (DMEM/1% B-27 (INS+)/Penicillin Streptomycin/dimethyl sulfoxide) containing differentiation-inducing factors (GSK3β inhibitor, ROCK inhibitor and low dose of activin A) under conditions causing action of insulin, and subsequently subjected to the second culture in a medium (DMEM/1% B-27 (INS−)/Penicillin Streptomycin/dimethyl sulfoxide) containing a differentiation-inducing factor (low dose of activin A) under conditions causing no action of insulin to obtain definitive endoderm cells. Further, a pancreatic endocrine progenitor cell population obtained by the induction of differentiation from the definitive endoderm cells was cultured in a medium (MCDB131/20 mM Glucose/NaHCO3/FAF-BSA/ITS-X/Glutamax/Penicillin Streptomycin) containing differentiation-inducing factors (ALK5 inhibitor II, T3, LDN, γ-secretase inhibitor RO, […]) to obtain an insulin-producing cell population. The exchange from the bioreactor to the multiwell plate was carried out in step 6).
Marker protein expression (NKX6.1, C-peptide (insulin), CHGA, and Ki67) in each insulin-producing cell population after the completion of culture was measured by flow cytometry. Respective samples were collected by sampling from separate culture containers. The number of cells was measured in an automatic cell counter at the time of sample preparation for flow cytometry, and the total number of cells per well of the multiwell plate was calculated.

[4] = test system: immunodeficient NOD/SCID mouse with streptozotocin-induced insulin-deficient diabetes mellitus; experiment: In vivo transplantation of insulin-producing cell population prepared by addition of docetaxel: plasma human C-peptide and graft weight (Example 5)
Protocol: An immunodeficient NOD/SCID mouse was prepared by inducing insulin-deficient diabetes mellitus with streptozotocin. […] After transplantation, a human C-peptide concentration in plasma was measured over time. The graft was excised 6 months after transplantation, and its weight was measured.

[5] = +Docetaxel 4 days from day 7 (1 μM), s6d11
[6] = +Docetaxel 4 days from day 7, after extended culture, EGF absent
[7] = +Docetaxel 4 days from day 7, after extended culture, EGF present
[8] = +Docetaxel 7 days from day 4 (1 μM), s6d11
[9] = +Docetaxel 7 days from day 4, after extended culture, EGF absent
[10] = +Docetaxel 7 days from day 4, after extended culture, EGF present

CC(=O)O[C@@]12CO[C@@H]1C[C@H](O)[C@@]1(C)C(=O)[C@H](O)C3=C(C)[C@@H](OC(=O)[C@H](O)[C@@H](NC(=O)OC(C)(C)C)c4ccccc4)C[C@@](O)([C@@H](OC(=O)c4ccccc4)[C@H]21)C3(C)C [Docetaxel, (−)-(1S,2S,3R,4S,5R,7S,8S,10R,13S)-4-Acetoxy-2-benzoyloxy-5,20-epoxy-1,7,10-trihydroxy-9-oxotax-11-en-13-yl (2R,3S)-3-tert-butoxycarbonylamido-2-hydroxy-3-phenylpropionate]
Ki67-positive cells in graft (immunohistological staining) [1]: slightly scattered | insulin-positive and glucagon-positive cells in graft (immunohistological staining) [1]: many insulin-positive and glucagon-positive cells were confirmed throughout the whole graft | Frequency of appearance (%), Cyst ([1]; total of 4 tests, 21 animals): 10% | Frequency of appearance (%), Outgrowth ([1]; total of 4 tests, 21 animals): 0% | The number of appearance, Cyst ([1]; total of 4 tests, 21 animals): 2 | The number of appearance, Outgrowth ([1]; total of 4 tests, 21 animals): 0 | population exhibiting marked increase by extended culture involving EGF (table footnote) ([2]; +Docetaxel 4 days from day 7): No population exhibited marked increase by extended culture involving EGF | The number of cells CHGA+ [2, 5]: 177 ×10^4 cells/well | The number of cells PDX+/CHGA− [2, 5]: 0.7 ×10^4 cells/well | The number of cells PDX−/CHGA− [2, 5]: 0.9 ×10^4 cells/well | Total number of cells [2, 5]: 178 ×10^4 cells/well | The number of cells CHGA+ [2, 6]: 132 ×10^4 cells/well | The number of cells PDX+/CHGA− [2, 6]: 1.5 ×10^4 cells/well | The number of cells PDX−/CHGA− [2, 6]: 6.3 ×10^4 cells/well | Total number of cells [2, 6]: 140 ×10^4 cells/well | The number of cells CHGA+ [2, 7]: 144 ×10^4 cells/well and 133 ×10^4 cells/well and 147 ×10^4 cells/well | The number of cells PDX+/CHGA− [2, 7]: 1.1 ×10^4 cells/well and 1.3 ×10^4 cells/well and 1.2 ×10^4 cells/well | The number of cells PDX−/CHGA− [2, 7]: 5.6 ×10^4 cells/well and 6.6 ×10^4 cells/well and 5.9 ×10^4 cells/well | Total number of cells [2, 7]: 151 ×10^4 cells/well and 141 ×10^4 cells/well and 154 ×10^4 cells/well | proportions of PDX1+/CHGA− and PDX1−/CHGA− cells after extended culture involving EGF ([2]; +Docetaxel 4 days from day 7): drastically decreased | population exhibiting marked increase by extended culture involving EGF (table footnote) ([2]; +Docetaxel 7 days from day 4): No population exhibited marked increase by extended culture involving EGF | The number of cells CHGA+ [2, 8]: 209 ×10^4 cells/well | The number of cells PDX+/CHGA− [2, 8]: 0.4 ×10^4 cells/well | The number of cells PDX−/CHGA− [2, 8]: 0.8 ×10^4 cells/well | Total number of cells [2, 8]: 210 ×10^4 cells/well | The number of cells CHGA+ [2, 9]: 126 ×10^4 cells/well | The number of cells PDX+/CHGA− [2, 9]: 1.5 ×10^4 cells/well | The number of cells PDX−/CHGA− [2, 9]: 5.0 ×10^4 cells/well | Total number of cells [2, 9]: 132 ×10^4 cells/well | The number of cells CHGA+ [2, 10]: 132 ×10^4 cells/well and 127 ×10^4 cells/well and 159 ×10^4 cells/well | The number of cells PDX+/CHGA− [2, 10]: 0.8 ×10^4 cells/well and 1.5 ×10^4 cells/well | The number of cells PDX−/CHGA− [2, 10]: 4.7 ×10^4 cells/well and 2.9 ×10^4 cells/well and 4.8 ×10^4 cells/well | Total number of cells [2, 10]: 138 ×10^4 cells/well and 165 ×10^4 cells/well | proportions of PDX1+/CHGA− and PDX1−/CHGA− cells after extended culture involving EGF ([2]; +Docetaxel 7 days from day 4): drastically decreased | increase of proportion of INS-positive and NKX6.1-positive cells ([3]; 1 μM docetaxel, 7 days from day 4 of step 6), with respect to control cell population): about 10% | Total number of cells ([3]; docetaxel treatment 1, 3 or 10 μM): not changed | abundance of CHGA-negative and Ki67-positive (CHGA−/Ki67+) cells ([3]; medium with PD-166866, irrespective of presence or absence of docetaxel treatment, without extended culture): ≤ 0.1% | action on proportion of INS-positive and NKX6.1-positive cells at higher concentration ([3]; up to the docetaxel concentration of 10 μM): not changed | graft weight ([4]; graft excised at 6 months after transplantation): low tendency | persistence of human C-peptide secretion after transplantation ([4]; subcutaneous transplantation, follow-up): continuously confirmed up to 6 months after transplantation | human C-peptide secretion in plasma ([4]; subcutaneously transplanted cell population prepared by addition of docetaxel vs prepared without docetaxel): at the same level
